# Source: patent publication US20240252581A1, “COMPOSITIONS AND METHODS FOR TREATING RESPIRATORY DISTRESS” (S.I.S. SHULOV INNOVATIVE SCIENCE LTD., priority 2021, published 2024)
# Values joined by “and” are separate entries in the source; they are usually repeats but may differ in a detail not shown here. Identical values can stand only once. Like-named read-outs stand apart in the source and are kept apart here. Square brackets hold non-standard residues; d marks the D form. Peptide text beside a SMILES is read from it. * marks the point of attachment. pGlu = O=C1CC[C@@H](C(=O)O)N1; Octanoyl = CCCCCCCC(=O)*
# How the values were obtained:
# [1] = tested on: B cells, T cells, eosinophils, neutrophils, macrophages/dendritic cells in BALF; experiment: LPS-induced acute lung injury / ARDS mouse model: BALF differential cell count by FACS; type: in vivo, BALB/c mice; parameters: key to Macrophages / B cells / T cells / Eosinophils / Neutrophils: (+) indicates activation; (−) indicates inhibition; details: for B cells (%) / Eosinophils (%) / Macrophages & dendritic cells (%) / Neutrophils (%) / T cells (%) / Eosinophils / Macrophages / B cells / Neutrophils / T cells: BALF
# Method: (§1) In order to test the efficacy of ZEP3 sodium on lung inflammation, the lipopolysaccharide (LPS)-induced acute lung injury model was used. In particular, LPS was administered intratracheally at doses of 10 or 40 mg/kg body weight (BW) corresponding to 0.2 or 0.8 mg/mouse, respectively.
# ZEP3 sodium was administered by inhalation (INH) at doses of 25 or 250 mg/kg BW (0.5 or 5 mg/mouse, respectively), or intratracheally (IT) at doses of 5 or 20 mg/kg BW (0.1 or 0.4 mg/mouse, respectively) 6 hours after LPS administration and its effect was measured 72 hours following administration in the branchial alveolar fluid (BALF) using FACS instrumentation. […]
# ACE2 mRNA = experiment: Relative ACE2 mRNA expression in lung tissue (real-time quantitative PCR); type: in vivo, mouse; details: in relation to rplO gene
# Method: as §1
# Relative ACE2 mRNA expression in lung tissue was determined as follows: mRNA was extracted from lung tissues, real-time quantitative PCR was employed, and expression of ACE2 gene in relation to rplO gene was measured.
# [2] = Toxicity of ZEP3Na in intratracheal administration, daily for 14 days; type: in vivo, rats
# Method: The toxicological effect of ZEP3Na administered intratracheally to rats was evaluated. Doses of 0.5, 1.0, and 2.5 mg ZEP3Na dissolved in saline were administered daily into the lungs for a period of 14 days. On day 15, necroscopy and histology of brain, heart, thymus, lungs, spleen, liver, kidneys, and gonads were performed. In addition, blood cell counts and chemistry parameters were counted. Also, the cell distribution (%) of the bronchial alveolar lavage fluid (BALF) was determined by FACS instrumentation for B cells, T cells, neutrophils, and macrophages.
# [3] = determined daily during the study
# Method: The effect of ZEP3Na administered intratracheally in a mice model of acute respiratory distress syndrome was evaluated. BALB/c mice were anaesthetized and orally intubated with a sterile plastic catheter and challenged with intratracheal instillation of 0.2 mg or 0.8 mg of LPS dissolved in 50 μL of PBS. Naïve mice (without LPS instillation) were injected with the same volume of saline to serve as controls. Six hours following LPS instillation, mice were administered intratracheally with ZEP3Na at two doses, namely 0.1 and 0.4 mg. The study was terminated 72 hours after LPS challenge to collect tissues for analysis.
# Animal body weights were determined daily during the study.
# [4] = Group 8: LPS 0.2 mg + ZEP3Na 0.1 mg IT, individual mice
# [5] = Group 9: LPS 0.2 mg + ZEP3Na 0.4 mg IT, group mean
# [6] = Group 9: LPS 0.2 mg + ZEP3Na 0.4 mg IT, individual mice
# [7] = LPS 0.2 mg + ZEP3Na (IT) 0.1 mg
# [8] = LPS 0.2 mg + ZEP3Na (IT) 0.4 mg
# [9] = LPS 0.8 mg + ZEP3Na (INH) 0.5 mg
# [10] = administered by inhalation following LPS instillation
# [11] = administered intratracheally following LPS instillation
# [12] = rats, 0.5, 1.0, and 2.5 mg intratracheally daily for 14 days
compound,measurement,setting,value
"CCCCCCCC(=O)NCCCC[C@H](NC(=O)[C@H](Cc1c[nH]c2ccccc12)NC(=O)[C@H](CC(N)=O)NC(=O)[C@@H]1CCC(=O)N1)C(=O)O [ZEP3Na, pGlu-Asn-Trp-Lys(Octanoyl)-ONa] ([pGlu]NWK(Octanoyl)-OH)",B cells (%),[1]; [4],0.040% and 0.064% and 0.259% and 0.230% and 0.080% and 0.054% and 0.069% and 0.053% and 0.045% and 0.075%
same,Eosinophils (%),[1]; [4],0.247% and 0.204% and 0.223% and 0.251% and 0.143% and 0.176% and 0.180% and 0.265% and 0.225% and 0.192%
same,Macrophages & dendritic cells (%),[1]; [4],2.218% and 1.674% and 5.674% and 2.257% and 0.618% and 1.800% and 1.175% and 5.084% and 1.252% and 1.516%
same,Neutrophils (%),[1]; [4],84.112% and 84.283% and 69.683% and 74.854% and 81.436% and 79.270% and 71.074% and 80.725% and 85.962% and 82.883%
same,T cells (%),[1]; [4],0.940% and 0.742% and 5.066% and 3.187% and 1.024% and 1.045% and 1.327% and 0.892% and 1.131% and 1.271%
same,B cells (%),[1]; [5],0.092%
same,Eosinophils (%),[1]; [5],0.270%
same,Macrophages & dendritic cells (%),[1]; [5],24.471%
same,Neutrophils (%),[1]; [5],55.279%
same,T cells (%),[1]; [5],1.175%
same,B cells (%),[1]; [6],0.045% and 0.054% and 0.029% and 0.019% and 0.100% and 0.153% and 0.286% and 0.103% and 0.037%
same,Eosinophils (%),[1]; [6],0.243% and 0.159% and 0.151% and 0.192% and 0.238% and 0.345% and 0.577% and 0.237% and 0.288%
same,Macrophages & dendritic cells (%),[1]; [6],4.399% and 1.327% and 0.529% and 0.437% and 1.661% and 60.592% and 75.765% and 73.903% and 1.626%
same,Neutrophils (%),[1]; [6],77.353% and 85.551% and 87.483% and 77.212% and 72.881% and 9.005% and 3.108% and 3.716% and 81.207%
same,T cells (%),[1]; [6],1.035% and 0.833% and 0.582% and 0.685% and 1.665% and 2.779% and 0.977% and 1.174% and 0.843%
same,Eosinophils,[1]; [7],−
same,Macrophages,[1]; [7],+
same,Eosinophils,[1]; [8],−
same,Macrophages,[1]; [8],+
same,B cells,[1]; [9],+
same,Eosinophils,[1]; [9],−
same,Macrophages,[1]; [9],+
same,Neutrophils,[1]; [9],−
same,T cells,[1]; [9],−
same,B cells,[1]; LPS 0.8 mg + ZEP3Na (INH) 5 mg,+
same,Eosinophils,[1]; LPS 0.8 mg + ZEP3Na (INH) 5 mg,−
same,Macrophages,[1]; LPS 0.8 mg + ZEP3Na (INH) 5 mg,+
same,Neutrophils,[1]; LPS 0.8 mg + ZEP3Na (INH) 5 mg,−
same,T cells,[1]; LPS 0.8 mg + ZEP3Na (INH) 5 mg,−
same,"levels of T cells, eosinophils, neutrophils",[1]; [10],significantly inhibited the expression and reduced the levels
same,levels of macrophages and B cells,[1]; [10],increased the levels
same,levels of eosinophils,[1]; [11],significantly inhibited the expression and reduced the levels
same,levels of macrophages,[1]; [11],increased the levels
same,Relative ACE2 mRNA expression (Mean ± SEM),ACE2 mRNA; LPS 0.2 mg + ZEP3 Na 0.1 mg,0.672 ± 0.145
same,Relative ACE2 mRNA expression (Mean ± SEM),ACE2 mRNA; LPS 0.2 mg + ZEP3 Na 0.4 mg,1.239 ± 0.132
same,Relative ACE2 mRNA expression (Mean ± SEM),ACE2 mRNA; LPS 0.8 mg + ZEP3 Na 0.1 mg,0.223 ± 0.031
same,Relative ACE2 mRNA expression (Mean ± SEM),"ACE2 mRNA; LPS 0.8 mg + ZEP3 Na 0.1 mg, listed as ZEP3 sodium",0.22
same,Relative ACE2 mRNA expression (Mean ± SEM),ACE2 mRNA; LPS 0.8 mg + ZEP3 Na 0.4 mg,0.805 ± 0.251
same,Relative ACE2 mRNA expression (Mean ± SEM),"ACE2 mRNA; ZEP3 Na 0.1 mg, no LPS",1.750 ± 0.320
same,Relative ACE2 mRNA expression (Mean ± SEM),"ACE2 mRNA; ZEP3 Na 0.4 mg, no LPS",0.303 ± 0.025
same,blood counts and chemistry,[2]; [12],comparable to the reference items
same,body weight,[2]; [12],remained similar to that of the control group
same,mortality or abnormal signs of behavior,[2]; [12],No mortality or abnormal signs of behavior
same,"distribution of B cells, T cells, neutrophils, and macrophages in BALF","[2]; rats, 0.5, 1.0, and 2.5 mg intratracheally daily for 14 days, FACS",No changes
same,necroscopy and histology of the inspected organs,"[2]; rats, day 15, brain, heart, thymus, lungs, spleen, liver, kidneys, gonads",no pathological changes
same,adverse effects in all parameters tested,"[2]; rats, intratracheal, up to 2.5 mg daily for 14 days",did not result in any detectable adverse effects
same,body weight,[3],No major changes
